{
  "source": "patent US20080280862A1",
  "about": "“Methods, compositions, and kits for the treatment of pain” (priority 2007, published 2008)",
  "key": {"[1]": {"system": "formalin-induced pain model in rats", "assay": "Formalin pain model, nociceptive behaviors", "assay_type": "in vivo, Sprague-Dawley rats", "settings": "20 mg/kg", "method": "The formalin model is a fast, reliable model used to assess potential analgesics ability to block inflammatory pain. The analgesic effects of test article combinations on pain generation are assayed using the formalin-induced pain model in rats. Adult male Sprague-Dawley rats are administered intraperitoneally study drugs (vehicle, TCA, steroid or TCA/Steroid test article combinations) once daily for 2 days (day −2 and day −1) and 30 minutes prior to the formalin injection day on day 0 (time=0). […] To elicit a pain response, dilute formalin (2% in saline) is injected under the skin of the plantar surface of the right hindpaw. The animal is placed in an observation chamber. The pain response is a characteristic biphasic response pattern of nociceptive behaviors (lifting, licking, and biting of the injected paw). Two distinct periods of nociceptive behaviors/activity are observed and recorded: an early phase (phase I) lasting the first 5-10 min and a late phase (phase II) lasting 20-40 min after the injection of formalin. One hour of data is collected (time spent displaying pain behavior) by a blinded observer using a stopwatch. Results are expressed as the number of pain behaviors per 5 minute periods (Table 8 and Table 9)."}, "[2]": {"system": "carrageenan-induced pain model in rats", "assay": "Carrageenan pain model, mechanical allodynia by Von Frey filaments", "assay_type": "in vivo, Sprague-Dawley rats", "settings": "for Mean change from baseline ± SEM: 25 mg/kg; for mean change from baseline: Table 4, 25 mg/kg ip", "method": "The carrageenan model is a fast, reliable model used to assess the ability of analgesics to block inflammatory pain. The analgesic effects of test article combinations on pain generation are assayed using the carrageenan-induced pain model in rats. Adult male Sprague-Dawley rats are administered study drugs intraperitoneally (vehicle, tricyclic compound (TCA), steroid or TCA/Steroid test article combinations) once daily for 2 days (day −2 and day −1) and 30 minutes prior to the carrageenan injection on day 0 (time=0). For the carrageenan injection, animals are lightly anesthetized and 0.1 ml of 2% carrageenan is injected into the plantar surface of the right hind paw. The positive control diclofenac at a dose of 25 mg/kg is administered intraperitoneally immediately before the carrageenan injection. Paw volumes (right and left) are measured using a plathysmometer before drug administration on day −2 and serve as a baseline measurement. The paw volumes are measured again two hours post carrageenan injection. The degree of mechanical allodynia is measured by a blinded observer using Von Frey filaments applied to the plantar surface of the hind paws in an increasing numerical order. Each filament increases the force applied on the paw. The filaments are applied until animal paw withdrawal is achieved. This procedure is carried out before drug administration (day −2), on day −1 and on day 0 at time=0, 20, 40, 60, 80 and 120 minutes post-carrageenan. The force (expressed in grams) required for paw withdrawal after carrageenan injection is subtracted from the force required for paw withdrawal before carrageenan injection. Results are expressed as mean change from baseline across five timepoints post carrageenan injection in Table 4.\nFor a synergy calculation, experimental data from the carrageenan study are fitted to a median-effect model and used to calculate the parameters' median-effect dose (Dm), slope (m), correlation coefficient (r), combination index (CI) and dose-reduction index (DRI). In addition, the probability of pain inhibition occurring after single-component (nortriptyline) versus the combination drug treatments are calculated from the negative change from baseline data using a Bayesian sensitivity analysis. The likelihood of pain inhibition is characterized for nortriptyline administered alone (1 mg/kg or 3 mg/kg) versus the fixed-dose combination treatments [prednisolone (0.3 mg/kg):nortriptyline (1 mg/kg) or prednisolone (1 mg/kg):nortriptyline (3 mg/kg)] each evaluated at 60 and 80 minutes for analgesic effect.\nIn another example, the effects of test article combinations on pain inhibition were assayed using the carrageenan model in rodents. Desipramine was tested alone and in combination at 0.3, 1, and 3 mg/kg and prednisolone was tested similarly at 0.3, 1 and 3 mg/kg IP."}},
  "data": [
    {"compound": "CN1CC[C@]23c4c5ccc(O)c4O[C@H]2[C@@H](O)C=C[C@H]3[C@H]1C5", "note": "[Morphine]", "values": [
      {"measurement": "Mean number of behaviors per 5 minute block", "setting": "[1]; Experiment One, amitriptyline, 5 minutes", "value": "116.0 ± 39.2"},
      {"measurement": "Mean number of behaviors per 5 minute block", "setting": "[1]; Experiment One, amitriptyline, 10 minutes", "value": "19.0 ± 13.7"},
      {"measurement": "Mean number of behaviors per 5 minute block", "setting": "[1]; Experiment One, amitriptyline, 15 minutes", "value": "17.0 ± 10.4"},
      {"measurement": "Mean number of behaviors per 5 minute block", "setting": "[1]; Experiment One, amitriptyline, 20 minutes", "value": "53.0 ± 32.2"},
      {"measurement": "Mean number of behaviors per 5 minute block", "setting": "[1]; Experiment One, amitriptyline, 25 minutes", "value": "77.0 ± 40.2"},
      {"measurement": "Mean number of behaviors per 5 minute block", "setting": "[1]; Experiment One, amitriptyline, 30 minutes", "value": "65.0 ± 36.2"},
      {"measurement": "Mean number of behaviors per 5 minute block", "setting": "[1]; Experiment One, amitriptyline, 35 minutes", "value": "66.0 ± 34.4"},
      {"measurement": "Mean number of behaviors per 5 minute block", "setting": "[1]; Experiment One, amitriptyline, 40 minutes", "value": "58.0 ± 33.3"},
      {"measurement": "Mean number of behaviors per 5 minute block", "setting": "[1]; Experiment One, amitriptyline, 45 minutes", "value": "33.0 ± 22.6"},
      {"measurement": "Mean number of behaviors per 5 minute block", "setting": "[1]; Experiment One, amitriptyline, 50 minutes", "value": "11.0 ± 10.3"},
      {"measurement": "Mean number of behaviors per 5 minute block", "setting": "[1]; Experiment One, amitriptyline, 55 minutes", "value": "2.0 ± 1.1"},
      {"measurement": "Mean number of behaviors per 5 minute block", "setting": "[1]; Experiment One, amitriptyline, 60 minutes", "value": "1.0 ± 0.6"},
      {"measurement": "Mean number of behaviors per 5 minute block", "setting": "[1]; Experiment One, nortriptyline, 5 minutes", "value": "120.0 ± 25.2"},
      {"measurement": "Mean number of behaviors per 5 minute block", "setting": "[1]; Experiment One, nortriptyline, 10 minutes", "value": "7.0 ± 5.3"},
      {"measurement": "Mean number of behaviors per 5 minute block", "setting": "[1]; Experiment One, nortriptyline, 15 minutes", "value": "2.0 ± 1.5"},
      {"measurement": "Mean number of behaviors per 5 minute block", "setting": "[1]; Experiment One, nortriptyline, 20 minutes", "value": "2.0 ± 1.1"},
      {"measurement": "Mean number of behaviors per 5 minute block", "setting": "[1]; Experiment One, nortriptyline, 25 minutes", "value": "1.0 ± 0.4"},
      {"measurement": "Mean number of behaviors per 5 minute block", "setting": "[1]; Experiment One, nortriptyline, 30 minutes", "value": "0.0 ± 0.0"},
      {"measurement": "Mean number of behaviors per 5 minute block", "setting": "[1]; Experiment One, nortriptyline, 35 minutes", "value": "0.0 ± 0.4"},
      {"measurement": "Mean number of behaviors per 5 minute block", "setting": "[1]; Experiment One, nortriptyline, 40 minutes", "value": "1.0 ± 1.2"},
      {"measurement": "Mean number of behaviors per 5 minute block", "setting": "[1]; Experiment One, nortriptyline, 45 minutes", "value": "20.0 ± 20.0"},
      {"measurement": "Mean number of behaviors per 5 minute block", "setting": "[1]; Experiment One, nortriptyline, 50 minutes", "value": "29.0 ± 28.6"},
      {"measurement": "Mean number of behaviors per 5 minute block", "setting": "[1]; Experiment One, nortriptyline, 55 minutes", "value": "29.0 ± 29.1"},
      {"measurement": "Mean number of behaviors per 5 minute block", "setting": "[1]; Experiment One, nortriptyline, 60 minutes", "value": "55.0 ± 36.4"},
      {"measurement": "Mean number of behaviors per 5 minute block", "setting": "[1]; Experiment Two, 5 minutes", "value": "64.0 ± 35.3"},
      {"measurement": "Mean number of behaviors per 5 minute block", "setting": "[1]; Experiment Two, 10 minutes", "value": "3.0 ± 3.0"},
      {"measurement": "Mean number of behaviors per 5 minute block", "setting": "[1]; Experiment Two, 15 minutes", "value": "0.0 ± 0.0"},
      {"measurement": "Mean number of behaviors per 5 minute block", "setting": "[1]; Experiment Two, 20 minutes", "value": "0.0 ± 0.4"},
      {"measurement": "Mean number of behaviors per 5 minute block", "setting": "[1]; Experiment Two, 25 minutes", "value": "0.0 ± 0.3"},
      {"measurement": "Mean number of behaviors per 5 minute block", "setting": "[1]; Experiment Two, 30 minutes", "value": "1.0 ± 1.1"},
      {"measurement": "Mean number of behaviors per 5 minute block", "setting": "[1]; Experiment Two, 35 minutes", "value": "1.0 ± 0.9"},
      {"measurement": "Mean number of behaviors per 5 minute block", "setting": "[1]; Experiment Two, 40 minutes", "value": "0.0 ± 0.1"},
      {"measurement": "Mean number of behaviors per 5 minute block", "setting": "[1]; Experiment Two, 45 minutes", "value": "8.0 ± 8.2"},
      {"measurement": "Mean number of behaviors per 5 minute block", "setting": "[1]; Experiment Two, 50 minutes", "value": "25.0 ± 16.4"},
      {"measurement": "Mean number of behaviors per 5 minute block", "setting": "[1]; Experiment Two, 55 minutes", "value": "56.0 ± 35.9"},
      {"measurement": "Mean number of behaviors per 5 minute block", "setting": "[1]; Experiment Two, 60 minutes", "value": "51.0 ± 36.9"}
    ]},
    {"compound": "O=C(O)Cc1ccccc1Nc1c(Cl)cccc1Cl", "note": "[Diclofenac]", "values": [
      {"measurement": "Mean AUC ± SEM", "setting": "[2]; 25 mg/Kg, AUC from 20 minutes through 120 minutes following carrageenan injection", "value": "5332 ± 772.96"},
      {"measurement": "Mean change from baseline ± SEM", "setting": "[2]; Experiment One, 20 minutes", "value": "-17.50 ± 11.24", "unit": "g"},
      {"measurement": "Mean change from baseline ± SEM", "setting": "[2]; Experiment One, 40 minutes", "value": "-74.70 ± 13.27", "unit": "g"},
      {"measurement": "Mean change from baseline ± SEM", "setting": "[2]; Experiment One, 60 minutes", "value": "-146.70 ± 16.73", "unit": "g"},
      {"measurement": "Mean change from baseline ± SEM", "setting": "[2]; Experiment One, 80 minutes", "value": "-203.30 ± 15.02", "unit": "g"},
      {"measurement": "Mean change from baseline ± SEM", "setting": "[2]; Experiment One, 120 minutes", "value": "-259.90 ± 15.14", "unit": "g"},
      {"measurement": "Mean change from baseline ± SEM", "setting": "[2]; Experiment Two, first set of rows, 20 minutes", "value": "5.91 ± 7.99", "unit": "g"},
      {"measurement": "Mean change from baseline ± SEM", "setting": "[2]; Experiment Two, first set of rows, 40 minutes", "value": "3.89 ± 5.82", "unit": "g"},
      {"measurement": "Mean change from baseline ± SEM", "setting": "[2]; Experiment Two, first set of rows, 60 minutes", "value": "5.94 ± 10.01", "unit": "g"},
      {"measurement": "Mean change from baseline ± SEM", "setting": "[2]; Experiment Two, first set of rows, 80 minutes", "value": "-2.47 ± 9.56", "unit": "g"},
      {"measurement": "Mean change from baseline ± SEM", "setting": "[2]; Experiment Two, first set of rows, 120 minutes", "value": "-11.26 ± 8.92", "unit": "g"},
      {"measurement": "Mean change from baseline ± SEM", "setting": "[2]; Experiment Two, second set of rows, 20 minutes", "value": "-8.50 ± 5.56", "unit": "g"},
      {"measurement": "Mean change from baseline ± SEM", "setting": "[2]; Experiment Two, second set of rows, 40 minutes", "value": "-12.75 ± 6.22", "unit": "g"},
      {"measurement": "Mean change from baseline ± SEM", "setting": "[2]; Experiment Two, second set of rows, 60 minutes", "value": "-8.50 ± 8.50", "unit": "g"},
      {"measurement": "Mean change from baseline ± SEM", "setting": "[2]; Experiment Two, second set of rows, 80 minutes", "value": "-12.75 ± 6.22", "unit": "g"},
      {"measurement": "Mean change from baseline ± SEM", "setting": "[2]; Experiment Two, second set of rows, 120 minutes", "value": "-17.75 ± 6.74", "unit": "g"},
      {"measurement": "mean change from baseline", "setting": "[2]; 20 minutes post carrageenan", "value": "−17.50 ± 11.24", "unit": "grams"},
      {"measurement": "mean change from baseline", "setting": "[2]; 40 minutes post carrageenan", "value": "−74.70 ± 13.27", "unit": "grams"},
      {"measurement": "mean change from baseline", "setting": "[2]; 60 minutes post carrageenan", "value": "−146.70 ± 16.73", "unit": "grams"},
      {"measurement": "mean change from baseline", "setting": "[2]; 80 minutes post carrageenan", "value": "−203.30 ± 15.02", "unit": "grams"},
      {"measurement": "mean change from baseline", "setting": "[2]; 120 minutes post carrageenan", "value": "−259.90 ± 15.14", "unit": "grams"}
    ]}
  ]
}
